Values of other authors in patent publication US20180064146A1, “METHOD FOR THE SURFACE DECONTAMINATION OF PACKAGED SOLID FOOD” (priority 2015, published 2018).

How the values were obtained:
[1] = tested on: strains of Arcobacter butzleri; conditions: vapours; Arcobacter butzleri in cabbage leaf; to an undetectable level
[2] = tested on: Escherichia coli; conditions: for MICs (in liquid form): agar dilution, oil in liquid form; for MIDs (as vapour): oil as vapour

For `CC(C)=CCCC(C)=CC=O` [Citral], the microbial load reduction [1] is given as 7 log CFU/2 cm^2, the “MICs (in liquid form)” value [2] is given as 800 µg/mL and the “MIDs (as vapour)” value [2] is given as 12.5 μg/cm^2.

For `C=C(C)[C@H]1CC=C(C)CC1` [Limonene], the “MICs (in liquid form)” value [2] is given as 3200 µg/mL and the “MIDs (as vapour)” value [2] is given as 800 μg/cm^2.

In the case of `C=CC(C)(O)CCC=C(C)C` (centres unmarked) [Linalool], the microbial load reduction [1] is listed as 7 log CFU/2 cm^2, the “MICs (in liquid form)” value [2] is listed as 3200 µg/mL and the “MIDs (as vapour)” value [2] is listed as 50 μg/cm^2.
